Target: T1, hMAGL (Homo sapiens, UniProt Q99685)
T1 sequence (Q99685 1-303): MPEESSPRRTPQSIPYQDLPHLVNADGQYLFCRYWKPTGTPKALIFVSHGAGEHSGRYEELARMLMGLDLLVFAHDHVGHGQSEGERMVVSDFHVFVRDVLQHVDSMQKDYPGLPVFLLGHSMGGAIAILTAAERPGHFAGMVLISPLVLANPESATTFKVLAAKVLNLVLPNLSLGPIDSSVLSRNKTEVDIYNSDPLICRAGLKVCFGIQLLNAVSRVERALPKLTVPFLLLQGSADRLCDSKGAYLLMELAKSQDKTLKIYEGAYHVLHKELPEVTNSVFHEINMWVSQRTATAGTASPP
Assay: 2-AG assay: MAGL inhibition, hydrolysis of 2-arachidonoylglycerol to arachidonic acid followed by mass spectrometry
Type: biochemical
Outline: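 Read-out is LC-MS/MS of arachidonic acid released from 2-arachidonoylglycerol (8 μM final), normalised to d8-arachidonic acid internal standard after acetonitrile quench. Enzyme […] and compound were pre-mixed 15 min, then reacted 30 min, both at RT, in Tris/EDTA buffer with 0.01% Tween-20 and 2.5% DMSO.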

Row | SMILES | IC50 [pM]
1 | N=S(=O)(c1cnn(CC2CC3(C2)CN(C(=O)N2CC4(CC(n5cnc(C(F)(F)F)n5)C4)C2)C3)c1)C(F)(F)F (stereo not drawn) [Example 341, [6-[[4-(trifluoromethylsulfonimidoyl)pyrazol-1-yl]methyl]-2-azaspiro[3.3]heptan-2-yl]-[6-[3-(trifluoromethyl)-1,2,4-triazol-1-yl]-2-azaspiro[3.3]heptan-2-yl]methanone] | 3540
2 | O=C(N1CC2(CC(Cc3cc(C4CC4)[nH]n3)C2)C1)N1CC2(CC(n3cnc(C(F)F)n3)C2)C1 [Example 342, [6-[(5-cyclopropyl-1H-pyrazol-3-yl)methyl]-2-azaspiro[3.3]heptan-2-yl]-[6-[3-(difluoromethyl)-1,2,4-triazol-1-yl]-2-azaspiro[3.3]heptan-2-yl]methanone] | 3260
3 | O=C(N1CC2(CC(Cc3cc(C(F)(F)F)n[nH]3)C2)C1)N1CC2(CC(n3cnc(C(F)F)n3)C2)C1 [Example 343, [6-[3-(difluoromethyl)-1,2,4-triazol-1-yl]-2-azaspiro[3.3]heptan-2-yl]-[6-[[3-(trifluoromethyl)-1H-pyrazol-5-yl]methyl]-2-azaspiro[3.3]heptan-2-yl]methanone] | 2620
4 | O=C(N1CC2(CC(Cc3n[nH]cc3C(F)(F)F)C2)C1)N1CC2(CC(n3cnc(C(F)F)n3)C2)C1 [Example 344, [6-[3-(difluoromethyl)-1,2,4-triazol-1-yl]-2-azaspiro[3.3]heptan-2-yl]-[6-[[4-(trifluoromethyl)-1H-pyrazol-3-yl]methyl]-2-azaspiro[3.3]heptan-2-yl]methanone] | 2260
5 | O=C(N1CC2(CC(Cn3ncnc3C(F)(F)F)C2)C1)N1CC2(CC(n3cnc(C4CC4)n3)C2)C1 [Example 345, [6-(3-cyclopropyl-1,2,4-triazol-1-yl)-2-azaspiro[3.3]heptan-2-yl]-[6-[[5-(trifluoromethyl)-1,2,4-triazol-1-yl]methyl]-2-azaspiro[3.3]heptan-2-yl]methanone] | 2220
6 | O=C(N1CC2(CC(Cc3cn[nH]c3C(F)(F)F)C2)C1)N1CC2(CC(n3cnc(C(F)F)n3)C2)C1 [Example 346, [6-[3-(difluoromethyl)-1,2,4-triazol-1-yl]-2-azaspiro[3.3]heptan-2-yl]-[6-[[5-(trifluoromethyl)-1H-pyrazol-4-yl]methyl]-2-azaspiro[3.3]heptan-2-yl]methanone] | 1990
7 | O=C(N1CC2(CC(Cc3cn(CC(F)(F)F)nn3)C2)C1)N1CC2(CC(n3cnc(C4CC4)n3)C2)C1 [Example 347, [6-(3-cyclopropyl-1,2,4-triazol-1-yl)-2-azaspiro[3.3]heptan-2-yl]-[6-[[1-(2,2,2-trifluoroethyl)triazol-4-yl]methyl]-2-azaspiro[3.3]heptan-2-yl]methanone] | 1770
8 | O=C(N1CC2(CC(Cc3nc(C(F)(F)F)c[nH]3)C2)C1)N1CC2(CC(n3cnc(C(F)(F)F)n3)C2)C1 [Example 348, [6-[[4-(trifluoromethyl)-1H-imidazol-2-yl]methyl]-2-azaspiro[3.3]heptan-2-yl]-[6-[3-(trifluoromethyl)-1,2,4-triazol-1-yl]-2-azaspiro[3.3]heptan-2-yl]methanone] | 1510
9 | N=S(=O)(c1cnn(CC2CC3(C2)CN(C(=O)N2CC4(CC(n5cnc(C6CC6)n5)C4)C2)C3)c1)C(F)(F)F (stereo not drawn) [Example 349, [6-(3-cyclopropyl-1,2,4-triazol-1-yl)-2-azaspiro[3.3]heptan-2-yl]-[6-[[4-(trifluoromethylsulfonimidoyl)pyrazol-1-yl]methyl]-2-azaspiro[3.3]heptan-2-yl]methanone] | 1020
10 | O=C(N1CC2(CC(Cc3cnn(CC(F)(F)F)n3)C2)C1)N1CC2(CC(n3cnc(C4CC4)n3)C2)C1 [Example 350, [6-(3-cyclopropyl-1,2,4-triazol-1-yl)-2-azaspiro[3.3]heptan-2-yl]-[6-[[2-(2,2,2-trifluoroethyl)triazol-4-yl]methyl]-2-azaspiro[3.3]heptan-2-yl]methanone] | 920
11 | O=C(N1CC2(CC(Cc3nc(C(F)(F)F)c[nH]3)C2)C1)N1CC2(CC(n3cnc(C4CC4)n3)C2)C1 [Example 351, [6-(3-cyclopropyl-1,2,4-triazol-1-yl)-2-azaspiro[3.3]heptan-2-yl]-[6-[[4-(trifluoromethyl)-1H-imidazol-2-yl]methyl]-2-azaspiro [3.3]heptan-2-yl]methanone] | 770
12 | O=C(N1CC2(CC(Cc3cc(C4(C(F)(F)F)CC4)[nH]n3)C2)C1)N1CC2(CC(n3cnc(C(F)F)n3)C2)C1 [Example 352, [6-[3-(difluoromethyl)-1,2,4-triazol-1-yl]-2-azaspiro[3.3]heptan-2-yl]-[6-[[5-[1-(trifluoromethyl)cyclopropyl]-1H-pyrazol-3-yl]methyl]-2-azaspiro[3.3]heptan-2-yl]methanone] | 600
13 | O=C(N1CC2(CC(Cn3cc(S(=O)(=O)C(F)(F)F)cn3)C2)C1)N1CC2(CC(n3cnc(C(F)(F)F)n3)C2)C1 [Example 353, [6-[3-(trifluoromethyl)-1,2,4-triazol-1-yl]-2-azaspiro[3.3]heptan-2-yl]-[6-[(4-triflylpyrazol-1-yl)methyl]-2-azaspiro[3.3]heptan-2-yl]methanone] | 190
14 | O=C(N1CC2(CC(Cc3cc(C4(C(F)(F)F)CC4)[nH]n3)C2)C1)N1CC2(CC(n3cnc(C(F)(F)F)n3)C2)C1 [Example 354] | 140
15 | O=C(N1CC2(CC(Cn3nccc3C3CC3)C2)C1)N1CC2(CC(n3cnc(C4CC4)n3)C2)C1 [Example 355, [6-[(5-cyclopropylpyrazol-1-yl)methyl]-2-azaspiro[3.3]heptan-2-yl]-[6-(3-cyclopropyl-1,2,4-triazol-1-yl)-2-azaspiro[3.3]heptan-2-yl]methanone] | 110
16 | O=C(N1CC2(CC(Cc3cnn4ccc(C(F)(F)F)nc34)C2)C1)N1CC2(CC(n3cnc(C4CC4)n3)C2)C1 [Example 358, [6-(3-cyclopropyl-1,2,4-triazol-1-yl)-2-azaspiro[3.3]heptan-2-yl]-[6-[[5-(trifluoromethyl)pyrazolo[1,5-a]pyrimidin-3-yl]methyl]-2-azaspiro[3.3]heptan-2-yl]methanone] | 90
17 | O=C(N1CC2(CC(Cc3cnn4c(C(F)(F)F)ccnc34)C2)C1)N1CC2(CC(n3cnc(C4CC4)n3)C2)C1 [Example 359, [6-(3-cyclopropyl-1,2,4-triazol-1-yl)-2-azaspiro[3.3]heptan-2-yl]-[6-[[7-(trifluoromethyl)pyrazolo[1,5-a]pyrimidin-3-yl]methyl]-2-azaspiro[3.3]heptan-2-yl]methanone] | 130
18 | O=C(N1CC2(CC(Cc3cnn4cc(C(F)(F)F)cnc34)C2)C1)N1CC2(CC(n3cnc(C4CC4)n3)C2)C1 [Example 360, [6-(3-cyclopropyl-1,2,4-triazol-1-yl)-2-azaspiro[3.3]heptan-2-yl]-[6-[[6-(trifluoromethyl)pyrazolo[1,5-a]pyrimidin-3-yl]methyl]-2-azaspiro[3.3]heptan-2-yl]methanone] | 300

Reference: patent publication US20260374756A1, “HETEROCYCLIC COMPOUNDS AS INHIBITORS OF MONOACYLGLYCEROL LIPASE (MAGL)” (Hoffmann-La Roche Inc., priority 2022, published 2026)
